Test results reported in ChEMBL document CHEMBL1201862, “PubChem BioAssay data set” (2004).
The source made the active and inactive calls.

Tests used:
Phosphomannomutase 2 = Phosphomannomutase 2 (Homo sapiens, UniProt O15305); test: Counter screen SAR assay for PMM2 inhibitors via a fluorescence intensity assay. [Related pubchem assays (depositor defined):AID1545, AID1574]
[1] = molecular target: T1, Mannose-6-phosphate isomerase (Homo sapiens, UniProt P34949); test: PMI enzyme inhibitors, confirmation, biochemical, fluorescence intensity (AID 1535)
T1 sequence (P34949 whole entry): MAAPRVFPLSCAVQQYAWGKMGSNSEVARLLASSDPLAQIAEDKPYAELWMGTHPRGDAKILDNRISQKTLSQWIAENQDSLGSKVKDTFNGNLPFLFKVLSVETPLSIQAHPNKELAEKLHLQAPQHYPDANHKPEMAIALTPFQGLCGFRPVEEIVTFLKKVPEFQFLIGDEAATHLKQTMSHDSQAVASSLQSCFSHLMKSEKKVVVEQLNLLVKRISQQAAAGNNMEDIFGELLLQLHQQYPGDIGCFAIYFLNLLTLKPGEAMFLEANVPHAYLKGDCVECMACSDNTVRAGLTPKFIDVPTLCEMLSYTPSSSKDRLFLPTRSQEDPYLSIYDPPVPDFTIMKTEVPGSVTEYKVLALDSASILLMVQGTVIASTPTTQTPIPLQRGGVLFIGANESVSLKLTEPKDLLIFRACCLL

[2] = molecular target: T2, Kappa-type opioid receptor (Homo sapiens, UniProt P41145); test: KOR agonist analogs, imaging readout, SAR follow-up, image-based (AID 2359); assay type: functional
Mu-type opioid receptor [3] = molecular target: T3, Mu-type opioid receptor (Homo sapiens, UniProt P35372); test: MOR agonists by imaging, SAR follow-up, image-based (AID 2352); assay type: functional
Mu-type opioid receptor [4] = molecular target: T3, Mu-type opioid receptor; test: MOR antagonists, SAR follow-up, image-based (AID 2420); assay type: functional;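 further: compounds added before stimulation of receptor with agonist DAMGO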
[5] = molecular target: T2, Kappa-type opioid receptor; test: KOR antagonists by imaging, SAR follow-up, image-based (AID 2348); assay type: functional
[6] = molecular target: T4, Delta-type opioid receptor (Homo sapiens, UniProt P41143); test: DOR agonists, SAR follow-up, image-based (AID 2370); assay type: functional
[7] = molecular target: T4, Delta-type opioid receptor; test: DOR antagonists, SAR follow-up, image-based (AID 2357); assay type: functional
[8] = molecular target: T2, Kappa-type opioid receptor; test: SAR analysis of small molecule agonists of the kappa opioid receptor via a luminescent beta-arrestin assay. [Related pubchem assays (depositor defined):AID1777, AID1786, AID1966, AID2133, AID2136, AID2348, AID2352, AID2357, AID2359, AID2370, AID2420, AID2478, AID2491, AID2492, AID2493, AID2497, AID2498, AID2500, AID449737, AID488822, AID488842]; assay type: functional
[9] = molecular target: T5, Tyrosine-protein phosphatase non-receptor type 22 (Homo sapiens, UniProt Q9Y2R2); test: SAR LYP1 Fluorescent Assay using OMFP substrate for In Vitro dose response studies - Set 3. [Related pubchem assays (depositor defined):AID1779, AID1784, AID2140, AID2686]; assay type: functional
T5 sequence (Q9Y2R2 whole entry): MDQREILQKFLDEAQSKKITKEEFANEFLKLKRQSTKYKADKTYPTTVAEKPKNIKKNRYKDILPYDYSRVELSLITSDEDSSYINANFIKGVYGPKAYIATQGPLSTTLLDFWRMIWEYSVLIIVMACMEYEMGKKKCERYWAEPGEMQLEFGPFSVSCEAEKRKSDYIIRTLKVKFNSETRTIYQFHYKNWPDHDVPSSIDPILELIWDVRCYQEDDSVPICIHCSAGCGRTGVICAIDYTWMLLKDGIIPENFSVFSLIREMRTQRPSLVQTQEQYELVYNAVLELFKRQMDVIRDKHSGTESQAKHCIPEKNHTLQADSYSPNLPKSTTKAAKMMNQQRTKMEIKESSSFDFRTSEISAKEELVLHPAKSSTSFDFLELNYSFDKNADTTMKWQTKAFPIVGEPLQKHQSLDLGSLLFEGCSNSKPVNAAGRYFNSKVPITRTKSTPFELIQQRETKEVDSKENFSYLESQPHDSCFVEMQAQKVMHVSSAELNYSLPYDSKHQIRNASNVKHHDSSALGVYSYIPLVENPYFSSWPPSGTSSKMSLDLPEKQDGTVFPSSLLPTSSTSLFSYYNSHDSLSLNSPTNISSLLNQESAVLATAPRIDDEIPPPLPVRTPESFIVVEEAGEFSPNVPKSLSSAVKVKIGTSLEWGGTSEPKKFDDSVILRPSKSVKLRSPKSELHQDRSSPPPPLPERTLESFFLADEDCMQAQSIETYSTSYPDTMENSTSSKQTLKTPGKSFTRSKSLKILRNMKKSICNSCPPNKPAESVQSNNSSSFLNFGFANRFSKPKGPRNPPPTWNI

[10] = molecular target: T6, RNA-binding protein pos-1 (Caenorhabditis elegans, UniProt G5EF15); test: inhibitors of POS-1/mex-3 RNA binding, dose response, biochemical, fluorescence polarization (AID 1964);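 further: purified POS-1 fused to maltose binding protein made in E. coli; potency of compounds blocking POS-1 binding to fluorescent RNA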
T6 sequence (G5EF15 whole entry): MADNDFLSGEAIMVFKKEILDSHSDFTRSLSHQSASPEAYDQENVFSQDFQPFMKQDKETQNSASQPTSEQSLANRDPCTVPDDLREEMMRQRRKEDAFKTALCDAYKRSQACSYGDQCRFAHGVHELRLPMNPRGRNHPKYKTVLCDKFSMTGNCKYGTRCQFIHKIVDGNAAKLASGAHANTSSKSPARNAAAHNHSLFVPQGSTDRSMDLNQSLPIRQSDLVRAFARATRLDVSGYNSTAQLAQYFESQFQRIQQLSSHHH

Prothrombin = Prothrombin (Bos taurus, UniProt P00735); test: thrombin inhibition, dose response, biochemical, fluorescence polarization, uHTS hits (AID 602369); assay type: functional
[11] = molecular target: T7, Tyrosine-protein phosphatase non-receptor type 7 (Homo sapiens, UniProt P35236); test: HTS HePTP Fluorescent Assay using OMFP substrate for In Vitro dose response studies. [Related pubchem assays (depositor defined):AID1059, AID1077, AID1784, AID2068, AID2085, AID435032, AID521]; assay type: functional
T7 sequence (P35236 whole entry): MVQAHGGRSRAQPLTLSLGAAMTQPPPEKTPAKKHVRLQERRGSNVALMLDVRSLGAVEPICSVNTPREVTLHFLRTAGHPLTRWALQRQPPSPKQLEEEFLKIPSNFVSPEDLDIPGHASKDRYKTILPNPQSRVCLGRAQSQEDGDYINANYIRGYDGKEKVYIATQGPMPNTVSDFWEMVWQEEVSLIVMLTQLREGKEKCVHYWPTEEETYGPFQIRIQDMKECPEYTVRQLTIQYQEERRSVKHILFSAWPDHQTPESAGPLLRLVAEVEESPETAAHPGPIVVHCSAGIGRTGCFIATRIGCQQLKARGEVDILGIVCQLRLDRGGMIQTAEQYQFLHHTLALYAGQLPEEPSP

[12] = molecular target: Envelope glycoprotein gp160 (Human immunodeficiency virus 1, UniProt Q6QLK5); test: inhibitors of HIV fusion peptide binding, primary screen, biochemical, uHTS, fluorescence dequenching (AID 1986)
[13] = molecular target: T5, Tyrosine-protein phosphatase non-receptor type 22; test: SAR LYP1 Fluorescent Assay using OMFP substrate for In Vitro dose response studies - Set 2. [Related pubchem assays (depositor defined):AID1779, AID1784, AID2140, AID449726, AID488869]; assay type: functional
[14] = molecular target: T5, Tyrosine-protein phosphatase non-receptor type 22; test: LYP1 Fluorescent Assay using OMFP substrate for In Vitro dose response studies. [Related pubchem assays (depositor defined):AID1779, AID1784, AID435024]
[15] = molecular target: 72 kDa type IV collagenase (Homo sapiens, UniProt P08253); test: Dose Response validation of uHTS RPN11 inhibitor hits using a MMP-2 Fluorescence assay.; assay type: functional
[16] = molecular target: T5, Tyrosine-protein phosphatase non-receptor type 22; test: SAR LYP1 Fluorescent Assay using pCAP substrate for In Vitro dose response studies - Set 2. [Related pubchem assays (depositor defined):AID1779, AID1784, AID2135, AID449727]; assay type: functional
[17] = molecular target: T8, Zinc finger protein mex-5 (Caenorhabditis elegans, UniProt Q9XUB2); test: MEX-5/TCR-2 RNA interaction inhibitors, dose response, biochemical, C. elegans, fluorescence polarization (AID 1960)
T8 sequence (Q9XUB2 whole entry): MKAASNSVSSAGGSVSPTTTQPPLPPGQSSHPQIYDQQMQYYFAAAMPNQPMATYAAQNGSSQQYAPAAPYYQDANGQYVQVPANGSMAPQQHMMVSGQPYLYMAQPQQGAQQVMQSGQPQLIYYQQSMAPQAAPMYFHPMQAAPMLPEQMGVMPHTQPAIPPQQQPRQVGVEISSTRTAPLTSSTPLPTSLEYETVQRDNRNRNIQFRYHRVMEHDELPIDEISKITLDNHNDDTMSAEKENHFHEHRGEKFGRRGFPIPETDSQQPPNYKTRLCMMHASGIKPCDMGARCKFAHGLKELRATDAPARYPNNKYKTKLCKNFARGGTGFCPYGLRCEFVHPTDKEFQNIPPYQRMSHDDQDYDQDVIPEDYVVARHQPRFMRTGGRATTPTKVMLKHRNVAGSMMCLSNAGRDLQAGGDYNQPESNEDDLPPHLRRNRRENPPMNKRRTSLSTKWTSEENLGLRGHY

[18] = molecular target: T5, Tyrosine-protein phosphatase non-receptor type 22; test: PubChem AID 2140
[19] = HIV-1 Env-mediated cell fusion inhibitors, dose response, CCR5-tropic Env (AID 2279); assay type: functional
[20] = molecular target: T5, Tyrosine-protein phosphatase non-receptor type 22; assay type: functional
[21] = molecular target: T7, Tyrosine-protein phosphatase non-receptor type 7; assay type: functional
[22] = molecular target: T5, Tyrosine-protein phosphatase non-receptor type 22; test: inhibitors of LYP phosphatase, biochemical, fluorescence intensity, uHTS (AID 1779)
[23] = molecular target: 26S proteasome non-ATPase regulatory subunit 14 (Homo sapiens, UniProt O00487); test: inhibition of proteasome subunit RPN11 – biochemical, fluorescence polarization, uHTS hits, confirmation (AID 602368); assay type: functional
[24] = molecular target: T5, Tyrosine-protein phosphatase non-receptor type 22; test: PubChem AID 2135
[25] = molecular target: Tyrosine-protein phosphatase non-receptor type 12 (Homo sapiens, UniProt Q05209); test: SAR Selectivity Analysis of small molecule inhibitors of PEST using pCAP in a fluorescence assay. [Related pubchem assays (depositor defined):AID1779, AID1784, AID2135]; assay type: functional
[26] = molecular target: T7, Tyrosine-protein phosphatase non-receptor type 7; test: HePTP (PTPN7) phosphatase inhibitor potency, SAR follow-up, biochemical, set 2 (AID 449736); assay type: functional
[27] = molecular target: Nucleotide-binding oligomerization domain-containing protein 2 (Homo sapiens, UniProt Q9HC29); test: PubChem AID 2334; assay type: functional
Tumor necrosis factor = Tumor necrosis factor (Homo sapiens, UniProt P01375); test: TNFa-triggered NF-kB activation inhibitors, SAR follow-up, cell-based, revised (AID 2337); assay type: functional
[28] = molecular target: Nucleotide-binding oligomerization domain-containing protein 1 (Homo sapiens, UniProt Q9Y239); test: NOD1 signaling inhibitors, SAR follow-up, revised (AID 2333); assay type: functional
HEK293 = test: cells; details: Homo sapiens;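 further: cells exposed to compound for 14 hours overnight before viability readout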
[29] = Counterscreen for AddAB inhibitors: absorbance-based bacterial cell-based high throughput dose response assay for inhibitors of bacterial viability. [Related pubchem assays (depositor defined):AID435030, AID449728, AID449731, AID488942, AID488955, AID488956]; assay type: functional
Exodeoxyribonuclease V = Exodeoxyribonuclease V (Escherichia coli (strain K12), UniProt P04993+P07648+P08394); test: E. coli RecBCD inhibitors, dose response, counter-screen for AddAB inhibitor project, absorbance, V66 E. coli, mutant T4 phage (AID 492957); assay type: functional, cell-based, Escherichia coli str. K-12 substr. MG1655
[30] = molecular target: T2, Kappa-type opioid receptor; test: SAR analysis of small molecule agonists of the kappa opioid receptor via a luminescent beta-arrestin assay - Set 3. [Related pubchem assays (depositor defined):AID1777, AID1785, AID1786, AID1966, AID2133, AID2136, AID2284, AID2500]; assay type: functional

T2 sequence (P41145 whole entry): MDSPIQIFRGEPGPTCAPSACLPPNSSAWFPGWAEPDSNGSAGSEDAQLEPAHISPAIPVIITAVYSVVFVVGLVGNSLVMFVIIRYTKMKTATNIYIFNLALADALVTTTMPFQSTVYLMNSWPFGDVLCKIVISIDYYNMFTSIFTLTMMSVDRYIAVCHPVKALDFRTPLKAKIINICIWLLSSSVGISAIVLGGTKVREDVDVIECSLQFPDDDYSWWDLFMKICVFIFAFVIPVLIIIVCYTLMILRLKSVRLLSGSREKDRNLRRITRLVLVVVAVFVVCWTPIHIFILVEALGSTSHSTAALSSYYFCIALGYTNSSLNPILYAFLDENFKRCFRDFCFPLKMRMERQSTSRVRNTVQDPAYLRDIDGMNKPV
T4 sequence (P41143 whole entry): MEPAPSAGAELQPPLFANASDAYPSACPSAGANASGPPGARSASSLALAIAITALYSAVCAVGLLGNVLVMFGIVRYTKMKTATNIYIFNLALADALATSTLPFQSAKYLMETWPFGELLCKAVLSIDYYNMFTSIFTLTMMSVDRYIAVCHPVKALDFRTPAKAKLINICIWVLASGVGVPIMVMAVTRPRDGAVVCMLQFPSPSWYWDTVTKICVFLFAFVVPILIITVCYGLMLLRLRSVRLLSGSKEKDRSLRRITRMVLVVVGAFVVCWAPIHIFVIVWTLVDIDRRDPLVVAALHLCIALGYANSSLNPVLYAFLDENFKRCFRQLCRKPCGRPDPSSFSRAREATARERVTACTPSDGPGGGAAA
T3 sequence (P35372 whole entry): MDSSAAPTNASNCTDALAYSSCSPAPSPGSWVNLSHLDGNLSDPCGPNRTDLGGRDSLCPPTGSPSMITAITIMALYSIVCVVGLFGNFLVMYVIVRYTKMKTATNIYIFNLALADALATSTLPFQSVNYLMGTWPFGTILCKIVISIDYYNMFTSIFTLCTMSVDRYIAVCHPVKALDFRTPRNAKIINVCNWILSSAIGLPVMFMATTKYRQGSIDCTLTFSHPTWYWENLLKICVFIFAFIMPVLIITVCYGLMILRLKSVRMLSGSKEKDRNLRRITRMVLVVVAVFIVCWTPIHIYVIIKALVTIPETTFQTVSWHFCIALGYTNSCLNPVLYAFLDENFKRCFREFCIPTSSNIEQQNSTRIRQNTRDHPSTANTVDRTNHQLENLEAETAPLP
Chain of 26S proteasome non-ATPase regulatory subunit 14 (O00487 whole entry): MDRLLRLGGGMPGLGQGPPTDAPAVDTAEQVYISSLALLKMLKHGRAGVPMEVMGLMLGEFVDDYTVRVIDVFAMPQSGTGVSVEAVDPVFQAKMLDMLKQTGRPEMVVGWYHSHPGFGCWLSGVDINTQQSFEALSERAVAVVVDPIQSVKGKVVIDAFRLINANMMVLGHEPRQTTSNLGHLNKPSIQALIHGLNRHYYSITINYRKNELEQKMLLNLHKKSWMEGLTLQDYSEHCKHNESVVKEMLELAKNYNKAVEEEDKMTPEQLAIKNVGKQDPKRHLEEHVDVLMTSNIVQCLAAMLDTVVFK
Chain of Envelope glycoprotein gp160 (Q6QLK5 whole entry, the tested form may be a part): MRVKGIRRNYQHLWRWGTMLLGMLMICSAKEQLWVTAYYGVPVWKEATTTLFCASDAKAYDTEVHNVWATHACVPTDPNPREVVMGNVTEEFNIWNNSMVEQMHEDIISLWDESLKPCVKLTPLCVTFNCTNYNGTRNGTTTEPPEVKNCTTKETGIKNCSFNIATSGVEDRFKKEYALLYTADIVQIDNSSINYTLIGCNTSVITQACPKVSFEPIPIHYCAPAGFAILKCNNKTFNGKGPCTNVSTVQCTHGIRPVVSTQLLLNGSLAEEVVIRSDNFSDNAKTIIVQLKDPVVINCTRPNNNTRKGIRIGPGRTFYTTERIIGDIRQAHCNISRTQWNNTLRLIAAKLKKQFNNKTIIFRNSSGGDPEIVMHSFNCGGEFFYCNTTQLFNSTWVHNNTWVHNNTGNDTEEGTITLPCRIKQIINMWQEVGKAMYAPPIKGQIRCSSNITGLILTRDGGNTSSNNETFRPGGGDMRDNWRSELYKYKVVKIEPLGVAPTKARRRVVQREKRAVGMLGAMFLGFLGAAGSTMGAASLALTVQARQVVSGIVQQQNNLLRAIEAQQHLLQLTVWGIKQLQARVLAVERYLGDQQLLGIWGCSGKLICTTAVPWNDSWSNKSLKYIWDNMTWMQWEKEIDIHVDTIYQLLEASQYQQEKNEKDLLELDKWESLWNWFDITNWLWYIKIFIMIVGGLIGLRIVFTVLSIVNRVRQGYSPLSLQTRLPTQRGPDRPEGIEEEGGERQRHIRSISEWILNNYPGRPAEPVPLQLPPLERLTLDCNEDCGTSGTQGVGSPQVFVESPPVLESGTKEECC
Chain of Nucleotide-binding oligomerization domain-containing protein 2 (Q9HC29 whole entry, the tested form may be a part): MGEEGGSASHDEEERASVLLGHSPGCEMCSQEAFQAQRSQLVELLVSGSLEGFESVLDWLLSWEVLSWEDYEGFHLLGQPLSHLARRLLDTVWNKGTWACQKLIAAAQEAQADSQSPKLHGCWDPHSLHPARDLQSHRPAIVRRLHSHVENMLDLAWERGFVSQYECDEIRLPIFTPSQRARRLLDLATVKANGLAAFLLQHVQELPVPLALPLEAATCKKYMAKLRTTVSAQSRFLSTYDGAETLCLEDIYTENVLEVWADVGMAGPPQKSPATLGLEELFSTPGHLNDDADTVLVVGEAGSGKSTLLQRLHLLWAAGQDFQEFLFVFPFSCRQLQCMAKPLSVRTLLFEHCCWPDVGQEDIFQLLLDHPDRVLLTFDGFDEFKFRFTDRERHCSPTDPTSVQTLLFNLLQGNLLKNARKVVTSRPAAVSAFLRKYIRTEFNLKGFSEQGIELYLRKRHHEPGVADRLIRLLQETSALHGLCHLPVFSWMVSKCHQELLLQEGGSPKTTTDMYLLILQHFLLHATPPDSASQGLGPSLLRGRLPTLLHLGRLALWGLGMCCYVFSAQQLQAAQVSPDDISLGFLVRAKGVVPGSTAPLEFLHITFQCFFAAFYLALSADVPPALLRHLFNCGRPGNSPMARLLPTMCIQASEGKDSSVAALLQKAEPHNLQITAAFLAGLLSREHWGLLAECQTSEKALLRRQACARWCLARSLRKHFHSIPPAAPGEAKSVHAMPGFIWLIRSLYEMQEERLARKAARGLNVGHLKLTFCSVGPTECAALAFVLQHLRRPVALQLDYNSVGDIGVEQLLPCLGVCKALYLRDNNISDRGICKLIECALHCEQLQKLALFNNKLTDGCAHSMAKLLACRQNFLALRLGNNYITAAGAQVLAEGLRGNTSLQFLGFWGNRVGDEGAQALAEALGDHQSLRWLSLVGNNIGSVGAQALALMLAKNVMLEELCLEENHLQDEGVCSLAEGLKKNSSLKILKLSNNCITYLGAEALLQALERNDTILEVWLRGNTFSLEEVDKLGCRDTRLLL
Chain of Nucleotide-binding oligomerization domain-containing protein 1 (Q9Y239 whole entry, the tested form may be a part): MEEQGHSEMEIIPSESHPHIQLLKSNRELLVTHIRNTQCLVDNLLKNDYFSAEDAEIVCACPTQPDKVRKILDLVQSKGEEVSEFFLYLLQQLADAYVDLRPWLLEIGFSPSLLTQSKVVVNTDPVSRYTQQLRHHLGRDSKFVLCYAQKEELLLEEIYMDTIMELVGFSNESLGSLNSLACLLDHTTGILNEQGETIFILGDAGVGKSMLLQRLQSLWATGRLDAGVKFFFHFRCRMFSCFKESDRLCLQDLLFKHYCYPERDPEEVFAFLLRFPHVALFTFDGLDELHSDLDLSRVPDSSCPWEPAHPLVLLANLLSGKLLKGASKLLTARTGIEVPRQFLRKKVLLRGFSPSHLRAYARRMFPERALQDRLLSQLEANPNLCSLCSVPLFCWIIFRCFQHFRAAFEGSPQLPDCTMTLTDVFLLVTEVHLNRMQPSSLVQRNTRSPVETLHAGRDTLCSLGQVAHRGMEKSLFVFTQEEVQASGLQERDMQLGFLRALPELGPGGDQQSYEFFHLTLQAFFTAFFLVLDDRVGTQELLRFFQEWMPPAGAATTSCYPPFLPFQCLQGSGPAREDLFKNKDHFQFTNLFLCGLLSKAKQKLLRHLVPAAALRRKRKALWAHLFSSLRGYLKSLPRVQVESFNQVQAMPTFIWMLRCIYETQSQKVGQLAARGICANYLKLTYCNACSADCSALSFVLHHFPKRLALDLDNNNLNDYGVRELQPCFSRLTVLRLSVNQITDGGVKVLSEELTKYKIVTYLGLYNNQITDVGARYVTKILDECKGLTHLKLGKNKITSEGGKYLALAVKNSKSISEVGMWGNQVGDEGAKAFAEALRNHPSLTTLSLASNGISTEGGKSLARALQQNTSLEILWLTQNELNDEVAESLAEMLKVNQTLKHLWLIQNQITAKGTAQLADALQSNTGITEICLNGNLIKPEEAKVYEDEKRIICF
Chain of Phosphomannomutase 2 (O15305 whole entry): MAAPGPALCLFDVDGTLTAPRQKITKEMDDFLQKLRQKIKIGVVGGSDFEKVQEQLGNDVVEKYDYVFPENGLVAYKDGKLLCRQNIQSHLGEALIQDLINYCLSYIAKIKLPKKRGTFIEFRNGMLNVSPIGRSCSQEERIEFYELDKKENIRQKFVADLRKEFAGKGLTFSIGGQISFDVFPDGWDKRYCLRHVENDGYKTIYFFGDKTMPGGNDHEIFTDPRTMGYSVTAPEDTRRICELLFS
Chain of Tumor necrosis factor (P01375 whole entry, the tested form may be a part): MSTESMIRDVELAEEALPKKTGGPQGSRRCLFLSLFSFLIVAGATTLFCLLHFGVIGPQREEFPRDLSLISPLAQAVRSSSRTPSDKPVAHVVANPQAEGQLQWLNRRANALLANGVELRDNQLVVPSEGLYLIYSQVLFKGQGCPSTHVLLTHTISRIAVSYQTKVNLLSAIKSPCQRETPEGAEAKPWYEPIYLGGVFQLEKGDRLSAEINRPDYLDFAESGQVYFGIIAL

CCOc1ccc(-c2nnc(S)o2)cc1
IC50 (Phosphomannomutase 2): > 100 µM (inactive) | IC50 [1]: > 50 µM (inactive)

Cc1ccc2[nH]c(=O)c(CN(C)C(=O)c3ccccn3)cc2c1
EC50 [2]: > 32 µM (inactive) | EC50 (Mu-type opioid receptor [3]): > 32 µM (inactive) | IC50 (Mu-type opioid receptor [4]): > 32 µM (inactive) | IC50 [5]: > 32 µM (inactive) | EC50 [6]: > 32 µM (inactive) | IC50 [7]: > 32 µM (inactive) | EC50 [8]: > 10 µM (inactive)

O=C(O)CCCN1C(=O)/C(=C/c2ccc(-c3nc4ccccc4s3)o2)SC1=S
IC50 [9]: 11.2 µM (active) | EC50 [10]: 3.39 µM (active) | IC50 (Prothrombin): 34.5 µM (active) | IC50 [11]: 24.6 µM (active) | IC50 [12]: 11.7 µM (active) | IC50 [13]: 3.92 µM (active) | IC50 [14]: 6.14 µM (active) | IC50 [15]: > 100 µM (inactive) | IC50 [16]: 3.1 µM (active) | EC50 [17]: 20.4 µM (active) | IC50 [18]: 16 µM (active) | IC50 [19]: 4.43 µM (active) | IC50 [20]: 4.77 µM (active) | IC50 [21]: 11.5 µM (active) | IC50 [22]: 7.71 µM (active) | IC50 [23]: 5.26 µM (active) | IC50 [24]: 3.69 µM (active) | IC50 [25]: 1.63 µM (active) | IC50 [26]: 0.608 µM (active)

O=C(Nc1nc2ccccc2n1Cc1ccccc1Cl)C1CCCCC1
IC50 [27]: > 20 µM (inactive) | IC50 (Tumor necrosis factor): > 20 µM (inactive) | IC50 [28]: > 20 µM (inactive) | IC50 (HEK293): > 20 µM (inactive)

Cc1cccnc1NC(=O)c1ccc([N+](=O)[O-])o1
IC50 [29]: 29.9 µM (inactive) | IC50 (Exodeoxyribonuclease V): > 119 µM (inactive)

c1ccc(CSc2nnc(-c3ccccn3)n2Cc2ccccc2)cc1
EC50 [30]: > 20 µM (inactive)
